# According to ChEMBL document CHEMBL5226324, “Exploring Translocator Protein (TSPO) Medicinal Chemistry: An Approach for Targeting Radionuclides and Boron Atoms to Mitochondria” (J Med Chem, 2021):
# What was measured:
# [1] = Displacement of [3H]flunitrazepam from CBR receptor in rat brain cortex membrane incubated for 20 mins by liquid scintillation spectrometer method; type: cell membranes, Cerebral cortex
# Translocator protein [2] = biological target: T1, Translocator protein (Homo sapiens, UniProt P30536); assay: Binding affinity to TSPO receptor (unknown origin)
# Translocator protein [3] = biological target: T2, Translocator protein (Rattus norvegicus, UniProt P16257); assay: Displacement of [3H]PK11195 from TSPO receptor in rat brain cortex membrane incubated for 120 mins by liquid scintillation spectrometer method; type: cell membranes, Cerebral cortex
# Translocator protein [4] = biological target: T1, Translocator protein; assay: Binding affinity to human TSPO
# Translocator protein [5] = biological target: T2, Translocator protein; assay: Displacement of [3H]PK11195 from TSPO receptor in rat brain cortex mitochondrial membrane incubated for 60 mins by liquid scintillation spectrometer method; type: cell membranes
# [6] = Lipophilicity, log P of the compound at pH 7.4; type: physicochemical; conditions: buffer
# Translocator protein [7] = biological target: T2, Translocator protein; assay: Displacement of [3H]PK11195 from TSPO receptor in rat brain cortex mitochondrial membrane by liquid scintillation spectrometer method; type: cell membranes
# [8] = Binding affinity to CBR (unknown origin); parameters: species or system Homo sapiens
# [9] = Metabolic stability in rat brain assessed as parent compound remaining after 30 mins by radio-HPLC analysis; type: ADME, tissue-based; conditions: read-out: Stability
# T2 sequence (P16257 whole entry, looked up): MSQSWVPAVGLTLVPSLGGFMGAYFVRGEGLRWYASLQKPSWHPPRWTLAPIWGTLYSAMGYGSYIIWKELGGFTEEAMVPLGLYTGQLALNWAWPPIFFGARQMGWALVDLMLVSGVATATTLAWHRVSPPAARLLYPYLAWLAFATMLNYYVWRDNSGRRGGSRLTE
# T1 sequence (P30536 whole entry): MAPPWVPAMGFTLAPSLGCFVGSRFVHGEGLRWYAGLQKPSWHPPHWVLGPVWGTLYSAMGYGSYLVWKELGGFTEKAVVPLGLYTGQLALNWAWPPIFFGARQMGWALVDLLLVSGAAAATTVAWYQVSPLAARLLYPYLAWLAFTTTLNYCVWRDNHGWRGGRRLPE
smiles,measurement,setting,value
CCCN(CCC)C(=O)/C=C1\c2nc3ccccc3cc2C(=O)N1c1ccc(Cl)cc1,IC50,[1]; read-out: IC50,> 1000 nM
CCCCCCN(CCCCCC)C(=O)CC1c2ncccc2C(=O)N1c1ccc(Cl)cc1 (stereo not given),IC50,[1]; read-out: IC50,> 1000 nM
CCCN(CCC)C(=O)/C=C1\c2ncccc2C(=O)N1c1ccc(Cl)cc1,IC50,[1]; read-out: IC50,> 1000 nM
CCCCCCN(CCCCCC)C(=O)/C=C1\c2ncccc2C(=O)N1c1ccc(Cl)cc1,IC50,[1]; read-out: IC50,> 1000 nM
CCN(CC)C(=O)[C@H]1CCCc2c1c1c(OC)cccc1n2CC[18F],Ki,Translocator protein [2],2.4 nM
CCCCCCN(CCCCCC)C(=O)/C=C1\c2nc3ccccc3cc2C(=O)N1c1ccc(Cl)cc1,IC50,[1]; read-out: IC50,> 1000 nM
CCCCCCN(CCCCCC)C(=O)CC1c2nc3ccccc3cc2C(=O)N1c1ccc(Cl)cc1 (stereo not given),IC50,[1]; read-out: IC50,> 1000 nM
O=C1c2cccnc2CN1c1ccc(Cl)cc1,IC50,[1]; read-out: IC50,> 1000 nM
CCCN(CCC)C(=O)CC1c2ncccc2C(=O)N1c1ccc(Cl)cc1 (stereo not given),IC50,[1]; read-out: IC50,860 nM
CCCCN1Cc2c(nc3ccccc3c2-c2ccccc2)C1=O,IC50,Translocator protein [3],> 10000 nM
CN(Cc1ccccc1)C(=O)c1nc2ccccc2c2c1CCOc1ccccc1-2,IC50,Translocator protein [3],10 nM
CCC(C)N(C)C(=O)c1cc2ccccc2c(-c2ccccc2[123I])n1 (stereo not given),Kd,Translocator protein [4],10 nM
CCN(CC)C(=O)Cc1c(-c2ccc([123I])cc2)nc2ccc(Cl)cn12,Kd,Translocator protein [5],3.84 nM
CCCN(CCC)C(=O)CC1c2nc3ccccc3cc2C(=O)N1c1ccccc1 (stereo not given),IC50,[1]; read-out: IC50,> 1000 nM
same,IC50,Translocator protein [3],> 1000 nM
CCCCN1Cc2c(nc3ccccc3c2-c2ccccc2F)C1=O,IC50,Translocator protein [3],> 10000 nM
CC(=O)N(Cc1ccccc1OCC[18F])c1cnccc1Oc1ccccc1,logD,[6],2.99
same,Ki,Translocator protein [7],0.07 nM
CCCN(CCC)C(=O)Cc1c(-c2ccc(Cl)cc2)[nH]c2ccc(Cl)cc12,IC50,[1]; read-out: IC50,> 1000 nM
CCCN(CCC)C(=O)Cc1c(-c2ccc(Cl)cc2)nc2ccc(Cl)cn12 [ALPIDEM],Ki,[8],1 nM
same,IC50,[1]; read-out: IC50,1 nM
same,IC50,Translocator protein [3],0.5 nM
CN1C(=O)CN=C(c2ccccc2)c2cc(Cl)ccc21 [DIAZEPAM],IC50,[1],5.6 nM
CCN(CC)C(=O)Cc1c(-c2ccc(OCCF)cc2)nn2c(C)cc(C)nc12 [DPA-714],remaining at 0.5 h,[9],< 3%
CN1C(=O)CN=C(c2ccc(Cl)cc2)c2cc(Cl)ccc21 [RO-54864],Kd,Translocator protein [2],1.1 nM
